Calls of active or inactive are those of the source. The calls are words filed in the database; no cut-off is given here.
Key:
[1] = biological target: T1, Oxysterols receptor LXR-alpha (Homo sapiens) (UniProt Q13133); test: (§1) Binding affinity to LXRalpha
T1 sequence (whole entry): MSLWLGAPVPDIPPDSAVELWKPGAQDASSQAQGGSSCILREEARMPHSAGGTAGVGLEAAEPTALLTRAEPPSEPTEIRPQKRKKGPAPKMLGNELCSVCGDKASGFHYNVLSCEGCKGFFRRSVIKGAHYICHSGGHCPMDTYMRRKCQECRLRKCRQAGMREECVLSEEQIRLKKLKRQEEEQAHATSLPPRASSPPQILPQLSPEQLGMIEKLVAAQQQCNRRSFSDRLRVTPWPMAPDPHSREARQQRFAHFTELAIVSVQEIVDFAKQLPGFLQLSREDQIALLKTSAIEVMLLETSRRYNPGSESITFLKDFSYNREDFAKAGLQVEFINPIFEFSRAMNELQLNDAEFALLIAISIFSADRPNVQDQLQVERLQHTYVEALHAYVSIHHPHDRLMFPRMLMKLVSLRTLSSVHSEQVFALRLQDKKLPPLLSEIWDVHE

[2] = biological target: T1, Oxysterols receptor LXR-alpha (Homo sapiens); test: (§2) Transactivation of LXRalpha
[3] = biological target: T2, Oxysterols receptor LXR-alpha (Homo sapiens, UniProt Q13133); test: as §1
T2 sequence (Q13133 whole entry): T1 sequence (whole entry)

[4] = biological target: T2, Oxysterols receptor LXR-alpha; test: as §2
[5] = biological target: Voltage-gated inwardly rectifying potassium channel KCNH2 (Homo sapiens, UniProt Q12809); test: Binding affinity to human ERG
Voltage-gated inwardly rectifying potassium channel KCNH2, sequence (Q12809 whole entry): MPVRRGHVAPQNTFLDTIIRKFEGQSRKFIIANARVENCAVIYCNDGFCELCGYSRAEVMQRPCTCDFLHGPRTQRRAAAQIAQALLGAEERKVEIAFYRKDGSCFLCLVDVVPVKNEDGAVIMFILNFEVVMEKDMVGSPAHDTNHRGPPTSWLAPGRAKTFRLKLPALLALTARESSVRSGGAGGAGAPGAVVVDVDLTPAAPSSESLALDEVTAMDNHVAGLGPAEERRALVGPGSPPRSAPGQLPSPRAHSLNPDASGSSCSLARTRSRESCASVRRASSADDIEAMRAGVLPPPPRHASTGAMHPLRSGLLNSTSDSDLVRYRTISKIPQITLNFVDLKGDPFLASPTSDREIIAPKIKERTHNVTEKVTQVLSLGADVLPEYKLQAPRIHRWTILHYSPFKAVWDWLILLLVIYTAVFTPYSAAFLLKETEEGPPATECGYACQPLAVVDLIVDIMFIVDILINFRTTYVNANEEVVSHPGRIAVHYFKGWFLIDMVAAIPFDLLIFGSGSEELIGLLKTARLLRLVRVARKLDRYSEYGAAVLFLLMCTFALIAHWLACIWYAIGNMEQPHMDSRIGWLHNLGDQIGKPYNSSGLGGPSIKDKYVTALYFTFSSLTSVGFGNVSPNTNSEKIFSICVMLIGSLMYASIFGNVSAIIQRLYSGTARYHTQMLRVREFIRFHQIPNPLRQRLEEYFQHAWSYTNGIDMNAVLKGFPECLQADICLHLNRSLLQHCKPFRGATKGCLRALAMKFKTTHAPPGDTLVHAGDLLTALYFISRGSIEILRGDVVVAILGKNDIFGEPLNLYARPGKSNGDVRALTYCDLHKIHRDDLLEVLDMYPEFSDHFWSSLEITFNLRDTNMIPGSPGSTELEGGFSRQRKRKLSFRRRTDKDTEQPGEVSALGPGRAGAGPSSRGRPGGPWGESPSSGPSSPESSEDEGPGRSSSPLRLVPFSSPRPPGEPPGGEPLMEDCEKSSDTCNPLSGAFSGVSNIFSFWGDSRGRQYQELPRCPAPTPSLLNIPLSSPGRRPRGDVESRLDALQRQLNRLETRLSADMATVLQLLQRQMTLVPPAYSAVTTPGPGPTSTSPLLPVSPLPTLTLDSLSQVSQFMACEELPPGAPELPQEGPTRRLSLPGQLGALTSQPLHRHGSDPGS

Mus musculus [6] = test: Increase in HDL-cholesterol level in C57BL/6J mouse at 10 mg/kg/day, ip dosed for 5 days measured 2 hrs after last dose; assay type: functional; conditions: route intraperitoneal
Mus musculus [7] = test: Increase in HDL-cholesterol level in C57BL/6J mouse at 40 mg/kg/day, ip dosed for 5 days measured 2 hrs after last dose; assay type: functional; conditions: route intraperitoneal
Mus musculus [8] = test: Increase in HDL-cholesterol level in C57BL/6J mouse at 100 mg/kg/day, ip dosed for 5 days measured 2 hrs after last dose; assay type: functional; conditions: route intraperitoneal
Mus musculus [9] = test: Increase in plasma triglyceride level in C57BL/6J mouse at 10 mg/kg/day, ip dosed for 5 days measured 2 hrs after last dose; assay type: functional; conditions: route intraperitoneal
Mus musculus [10] = test: Increase in plasma triglyceride level in C57BL/6J mouse at 40 mg/kg/day, ip dosed for 5 days measured 2 hrs after last dose; assay type: functional; conditions: route intraperitoneal
Mus musculus [11] = test: Increase in plasma triglyceride level in C57BL/6J mouse at 100 mg/kg/day, ip dosed for 5 days measured 2 hrs after last dose; assay type: functional; conditions: route intraperitoneal
Mus musculus [12] = test: Increase in liver triglyceride level in C57BL/6J mouse at 10 mg/kg/day, ip dosed for 5 days measured 2 hrs after last dose; assay type: functional; conditions: route intraperitoneal
Mus musculus [13] = test: Increase in liver triglyceride level in C57BL/6J mouse at 40 mg/kg/day, ip dosed for 5 days measured 2 hrs after last dose; assay type: functional; conditions: route intraperitoneal
Mus musculus [14] = test: Increase in liver triglyceride level in C57BL/6J mouse at 100 mg/kg/day, ip dosed for 5 days measured 2 hrs after last dose; assay type: functional; conditions: route intraperitoneal
[15] = Plasma concentration in C57BL/6J mouse at 10 mg/kg/day, ip dosed for 5 days; assay type: ADME, organism-based; design: route intraperitoneal
[16] = Plasma concentration in C57BL/6J mouse at 40 mg/kg/day, ip dosed for 5 days; assay type: ADME, organism-based; design: route intraperitoneal
[17] = Plasma concentration in C57BL/6J mouse at 100 mg/kg/day, ip dosed for 5 days; assay type: ADME, organism-based; design: route intraperitoneal
[18] = Drug level in C57BL/6J mouse liver at 10 mg/kg/day, ip dosed for 5 days; assay type: ADME, organism-based; design: route intraperitoneal; conditions: read-out: Drug uptake
[19] = Drug level in C57BL/6J mouse liver at 40 mg/kg/day, ip dosed for 5 days; assay type: ADME, organism-based; design: route intraperitoneal; conditions: read-out: Drug uptake
[20] = Drug level in C57BL/6J mouse liver at 100 mg/kg/day, ip dosed for 5 days; assay type: ADME, organism-based; design: route intraperitoneal; conditions: read-out: Drug uptake
Cytochrome P450 3A4 = Cytochrome P450 3A4 (Homo sapiens, UniProt P08684); test: Binding affinity to CYP3A4; assay type: ADME
Cytochrome P450 3A4, sequence (P08684 whole entry): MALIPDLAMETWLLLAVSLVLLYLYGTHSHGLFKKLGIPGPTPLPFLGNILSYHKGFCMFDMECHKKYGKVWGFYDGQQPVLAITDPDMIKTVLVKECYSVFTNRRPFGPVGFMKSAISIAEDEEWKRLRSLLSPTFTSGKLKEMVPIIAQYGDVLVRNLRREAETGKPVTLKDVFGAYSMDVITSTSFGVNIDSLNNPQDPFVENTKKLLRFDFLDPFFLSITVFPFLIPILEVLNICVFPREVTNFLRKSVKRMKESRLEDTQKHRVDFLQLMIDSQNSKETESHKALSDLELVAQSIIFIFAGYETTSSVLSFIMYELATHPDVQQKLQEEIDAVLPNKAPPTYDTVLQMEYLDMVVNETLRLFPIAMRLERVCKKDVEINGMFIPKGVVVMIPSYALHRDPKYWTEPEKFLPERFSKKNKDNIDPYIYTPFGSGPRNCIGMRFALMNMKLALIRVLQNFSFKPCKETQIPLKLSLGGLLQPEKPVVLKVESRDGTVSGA

| IC50 [3] | EC50 [4] | concentration at 120 h [15] | concentration at 120 h [18] | SMILES | Activity (Mus musculus [6]) | Activity (Mus musculus [9]) | Activity (Mus musculus [12]) | other results |
| --- | --- | --- | --- | --- | --- | --- | --- | --- |
| 100 nM | 160 nM | – | – | N#Cc1noc([C@](F)([C@H]2Cc3[nH]c4ccc(Cl)cc4c3C2)S(=O)(=O)c2ccccc2)n1 (racemic) | – | – | – | – |
| – | – | 255 ng/mL | 7900 ng/g | O=S(=O)(c1ccccc1)N(CC(F)(F)F)c1ccc(C(O)(C(F)(F)F)C(F)(F)F)cc1 [T091317] | 23% | 20% | 270% | – |

More lines, now with the values behind:

| SMILES | IC50 [3] | EC50 [4] | concentration at 120 h [15] | concentration at 120 h [18] | Activity (Mus musculus [6]) | Activity (Mus musculus [9]) | Activity (Mus musculus [12]) | other results |
| --- | --- | --- | --- | --- | --- | --- | --- | --- |
| COC(=O)C(C)(C1CCCc2c([nH]c3ccc(Cl)cc23)C1)S(=O)(=O)c1ccccc1 (stereo not drawn) | – | – | – | – | – | – | – | Activity [1]: inactive; Activity [2]: inactive |
| COC(=O)c1noc([C@](F)([C@H]2Cc3[nH]c4ccc(Cl)cc4c3C2)S(=O)(=O)c2ccccc2)n1 (racemic) | 1630 nM | 1260 nM | – | – | – | – | – | – |
| Cc1nnc([C@](F)([C@H]2Cc3[nH]c4ccc(Cl)cc4c3C2)S(=O)(=O)c2ccccc2)o1 | – | – | 180 ng/mL | 1130 ng/g | 27% | 9% | 100% | Activity [5]: Not Active; Activity (Mus musculus [7]): 27%; Activity (Mus musculus [8]): 36%; Activity (Mus musculus [10]): 9%; Activity (Mus musculus [11]): -2%; Activity (Mus musculus [13]): -19%; Activity (Mus musculus [14]): 45%; concentration at 120 h [16]: 682 ng/mL; concentration at 120 h [17]: 2150 ng/mL; concentration at 120 h [19]: 5490 ng/g; concentration at 120 h [20]: 13200 ng/g; Activity (Cytochrome P450 3A4): Not Active |

Reference: ChEMBL document CHEMBL1153298, “Discovery of tetrahydro-cyclopenta[b]indole as selective LXRs modulator” (Bioorg Med Chem Lett, 2009)
